# From ChEMBL document CHEMBL4433222, “Treatment of Alzheimer's by PROTAC-Tau Protein Degradation” (ACS Med Chem Lett, 2019)
# Assay: Half life in CD1 mouse brain at 30 mg/kg, ip by LC-MS/MS analysis
# Type: ADME, organism-based
compound,measurement,value
O=C(CCc1ccc2c(c1)[nH]c1ccncc12)NCCOCCOCCNc1cccc2c1C(=O)N(C1CCC(=O)NC1=O)C2=O (stereo unspecified),half-life,46 min
